Measurements as given in US20240067655A1 (NEURON23, INC., priority 2020, published 2024).

Biological target: T1, wt human LRRK2, catalytic site (Homo sapiens, UniProt Q5S007)
T1 construct: wt human LRRK2, catalytic site; purchased ThermoFisher/USA
Experiment: TR-FRET LanthaScreen Tb Kinase Activity Assay (Example 71)
Assay type: biochemical
Conditions: compounds of Table 4, 38 uM ATP, method names only wt human LRRK2, read-out: IC50, Inhibitory Activity Toward LRRK2 (Wt) and LRRK2 (G2019)
Procedure: The compounds in Table 4 were tested for their inhibitory effect on LRRK2 kinases according to the following procedures.
The basic protocol for TR-FRET LanthaScreen Tb Kinase Activity Assay inhibitor studies were performed as follows. LanthaScreen Kinase Activity Assays (ThermoFisher/USA) to evaluate inhibitors were performed by addition of 100 nl of test compound in corresponding DMSO dilutions/5 μl of kinase/fluorescein-ERM(LRRKtide) peptide mixture, 5 μl of ATP into 384 well small volume plates. After incubation for 120 minutes at room temperature, the detection reagents containing Tb-anti-pLRRKtide antibody were added to monitor phosphrylation level of peptide. Then, after 60 min minutes incubation at room temperature plates were read in Envision. Data analysis of emission ratios was according to LanthaScreen Tb Kinase Activity Assay protocol.
Kinase and assay components were adjusted to final concentrations according to the kit protocol. For LRRK2: 2 nM wt human LRRK2, catalytic site, catalytic site (ThermoFisher/USA), 400 nM peptide, 38 uM ATP in 1× Kinase Buffer A.
Basic protocol for TR-FRET LanthaScreen Tb Kinase Activity Assay inhibitor studies involved two steps:
Enzymatic step: Addition of 100 nl of test compound in corresponding DMSO dilutions, 5 μl of kinase/substrate mixture, 5 μl of ATP into 384 well small volume plates. Incubation for 120 minutes at room temperature.
Detection step: Addition of 10 μl EDTA & antibody, read plate after 60 minutes. Data analysis of emission ratios according to KinEASE assay protocol.

T1 sequence (Q5S007 1879-2138 limits assumed): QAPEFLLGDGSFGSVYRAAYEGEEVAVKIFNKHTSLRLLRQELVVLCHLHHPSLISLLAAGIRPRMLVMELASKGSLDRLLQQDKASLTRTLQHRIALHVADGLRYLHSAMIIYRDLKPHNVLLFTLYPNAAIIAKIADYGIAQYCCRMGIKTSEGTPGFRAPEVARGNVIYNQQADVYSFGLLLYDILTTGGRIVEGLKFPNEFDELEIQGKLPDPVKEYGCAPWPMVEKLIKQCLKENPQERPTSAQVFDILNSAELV

| Structure (SMILES) | IC50 [nM] |
| --- | --- |
| Cc1cccc(F)c1C1=Nc2cn[nH]c2-c2cnn3c2N1CC3 [Compound 382, 8-(2-fluoro-6-methyl-phenyl)-3,4,7,9,12,13-hexazatetracyclo[7.5.1.02,6.012,15]pentadeca-1(15),2(6),4,7,13-pentaene] | < 10 |
| Fc1cccc(Cl)c1C1=Nc2cn[nH]c2-c2cnn3c2N1CC3 [Compound 383, 8-(2-chloro-6-fluoro-phenyl)-3,4,7,9,12,13-hexazatetracyclo[7.5.1.02,6.012,15]pentadec-1(15),2(6),4,7,13-pentaen] | < 10 |
| Fc1cc(OC(F)F)cc(F)c1C1=Nc2cn[nH]c2-c2cc(C(F)(F)F)cc3[nH]cc1c23 [Compound 384, 3-(4-(difluoromethoxy)-2,6-difluorophenyl)-9-(trifluoromethyl)-1,7-dihydropyrazolo[3′,4′:6,7]azepino[3,4,5-cd]indole] | 10 to 100 |
| Fc1cc(Cl)cc(F)c1C1=Nc2cn[nH]c2-c2cnn3c2N1CCC3 [Compound 385, 9-(4-chloro-2,6-difluorophenyl)-3,6,7,8-tetrahydro-2,3,5,5a,8a,10-hexaazabenzo[cd]cyclopenta[h]azulene] | 10 to 100 |
| Fc1cncc(F)c1C1=Nc2c(Cl)n[nH]c2-c2cnn3c2N1CCC3 [Compound 386, 1-chloro-9-(3,5-difluoropyridin-4-yl)-3,6,7,8-tetrahydro-2,3,5,5a,8a,10-hexaazabenzo[cd]cyclopenta[h]azulene] | 10 to 100 |
| Fc1cc(F)c(C2=Nc3cn[nH]c3-c3cnn4c3N2CC4)c(F)c1 [Compound 387, 3-(2,4,6-trifluorophenyl)-2,7-dihydro-1H-2a,4,6,7,9,9a-hexaazadicyclopenta[cd,f]azulene] | < 10 |
| Fc1cccc(Br)c1C1=Nc2cn[nH]c2-c2cnn3c2N1CC3 [Compound 393, 3-(2-bromo-6-fluorophenyl)-2,7-dihydro-1H-2a,4,6,7,9,9a-hexaazadicyclopenta[cd,f]azulene] | 10 to 100 |
| Cc1n[nH]c2c1N=C(c1c(F)cccc1Cl)N1CCn3ncc-2c31 [Compound 395, 3-(2-chloro-6-fluorophenyl)-5-methyl-2,7-dihydro-1H-2a,4,6,7,9,9a-hexaazadicyclopenta[cd,f]azulene] | < 10 |
| Cc1n[nH]c2c1N=C(c1c(F)ccc(C#N)c1F)N1CCCn3ncc-2c31 [Compound 397, 2,4-difluoro-3-(1-methyl-3,6,7,8-tetrahydro-2,3,5,5a,8a,10-hexaazabenzo[cd]cyclopenta[h]azulen-9-yl)benzonitrile] | < 10 |
| Cc1n[nH]c2c1N=C(c1c(F)cccc1F)c1c[nH]c3cc(Cl)cc-2c13 [Compound 400, 9-chloro-3-(2,6-difluorophenyl)-5-methyl-1,7-dihydropyrazolo[3′,4′:6,7]azepino[3,4,5-cd]indole] | < 10 |
| Fc1cccc(F)c1C1=Nc2cn[nH]c2-c2cc(C(F)(F)F)cc3[nH]cc1c23 [Compound 401, 3-(2,6-difluorophenyl)-9-(trifluoromethyl)-1,7-dihydropyrazolo[3′,4′:6,7]azepino[3,4,5-cd]indole] | < 10 |
| Fc1cc(Cl)cc(F)c1C1Nc2cn[nH]c2-c2cnn3c2N1CCC3 (stereo not drawn) [Compound 402, 9-(4-chloro-2,6-difluorophenyl)-3,6,7,8,9,10-hexahydro-2,3,5,5a,8a,10-hexaazabenzo[cd]cyclopenta[h]azulene] | 100 to 1000 |
| Fc1cc2ncccc2c(F)c1C1=Nc2cn[nH]c2-c2cnn3c2N1CC3 [Compound 404, 3-(5,7-difluoroquinolin-6-yl)-2,7-dihydro-1H-2a,4,6,7,9,9a-hexaazadicyclopenta[cd,f]azulene] | 10 to 100 |
| N#Cc1ccc(F)c(C2=Nc3cn[nH]c3-c3cc(C(F)(F)F)cc4[nH]cc2c34)c1F [Compound 405, 2,4-difluoro-3-(9-(trifluoromethyl)-1,7-dihydropyrazolo[3′,4′:6,7]azepino[3,4,5-cd]indol-3-yl)benzonitrile] | < 10 |
| OCc1cc(F)c(C2=Nc3cn[nH]c3-c3cc(C(F)(F)F)cc4[nH]cc2c34)c(F)c1 [Compound 406, (3,5-difluoro-4-(9-(trifluoromethyl)-1,7-dihydropyrazolo[3′,4′:6,7]azepino[3,4,5-cd]indol-3-yl)phenyl)methanol] | < 10 |
| COc1cc(F)c(C2=Nc3cn[nH]c3-c3cc(C(F)(F)F)cc4[nH]cc2c34)c(F)c1 [Compound 408] | 10 to 100 |

The next lines start with the values.

| IC50 [nM] | Structure (SMILES) |
| --- | --- |
| 100 to 1000 | Fc1cccc(F)c1C1=Nc2cn[nH]c2-c2cnn3c2N1CC1(CC1)C3 [Compound 377, 9-(2,6-difluorophenyl)-6,8-dihydro-3H-spiro[2,3,5,5a,8a,10-hexaazabenzo[cd]cyclopenta[h]azulene-7,1′-cyclopropane]] |
| 100 to 1000 | Cc1cccc(C)c1C1=Nc2cn[nH]c2-c2cnn3c2N1CCC3 [Compound 379, 8-(2,6-dimethylphenyl)-3,4,7,9,13,14-hexazatetracyclo[7.6.1.02,6.013,16]hexadeca-1(16),2(6),4,7,14-pentaene] |
| 10 to 100 | Fc1cccc(C(F)(F)F)c1C1=Nc2cn[nH]c2-c2cnn3c2N1CCC3 [Compound 380, 8-[2-fluoro-6-(trifluoromethyl)phenyl]-3,4,7,9,13,14-hexazatetracyclo[7.6.1.02,6.013,16]hexadeca-1(16),2(6),4,7,14-pentaene] |
| 10 to 100 | Fc1cccc(C(F)F)c1C1=Nc2cn[nH]c2-c2cnn3c2N1CCC3 [Compound 381, 8-[2-(difluoromethyl)-6-fluoro-phenyl]-3,4,7,9,13,14-hexazatetracyclo[7.6.1.02,6.013,16]hexadeca-1(16),2(6),4,7,14-pentaene] |
| 10 to 100 | Fc1cc(Cl)cc(F)c1C1=Nc2cn[nH]c2-c2cnn3c2N1CC3 [Compound 388, 3-(4-chloro-2,6-difluorophenyl)-2,7-dihydro-1H-2a,4,6,7,9,9a-hexaazadicyclopenta[cd,f]azulene] |
| < 10 | Fc1ccc(Br)c(F)c1C1=Nc2cn[nH]c2-c2cnn3c2N1CC3 [Compound 389, 3-(3-bromo-2,6-difluorophenyl)-2,7-dihydro-1H-2a,4,6,7,9,9a-hexaazadicyclopenta[cd,f]azulene] |
| < 10 | Fc1ccc(Cl)c(F)c1C1=Nc2cn[nH]c2-c2cnn3c2N1CC3 [Compound 390, 3-(3-chloro-2,6-difluorophenyl)-2,7-dihydro-1H-2a,4,6,7,9,9a-hexaazadicyclopenta[cd,f]azulene] |
| < 10 | Cc1n[nH]c2c1N=C(c1c(F)ccc(Br)c1F)N1CCn3ncc-2c31 [Compound 391, 3-(3-bromo-2,6-difluorophenyl)-5-methyl-2,7-dihydro-1H-2a,4,6,7,9,9a-hexaazadicyclopenta[cd,f]azulene] |
| < 10 | Fc1ccc(Br)c(Cl)c1C1=Nc2cn[nH]c2-c2cnn3c2N1CC3 [Compound 392, 3-(3-bromo-2-chloro-6-fluorophenyl)-2,7-dihydro-1H-2a,4,6,7,9,9a-hexaazadicyclopenta[cd,f]azulene] |
| < 10 | N#Cc1ccc(F)c(C2=Nc3cn[nH]c3-c3cnn4c3N2CC4)c1F [Compound 394, 3-(2,7-dihydro-1H-2a,4,6,7,9,9a-hexaazadicyclopenta[cd,f]azulen-3-yl)-2,4-difluorobenzonitrile] |
| < 10 | Cc1ccc(F)c(C2=Nc3c(C)n[nH]c3-c3cnn4c3N2CCC4)c1F [Compound 396, 9-(2,6-difluoro-3-methylphenyl)-1-methyl-3,6,7,8-tetrahydro-2,3,5,5a,8a,10-hexaazabenzo[cd]cyclopenta[h]azulene] |
| < 10 | Cc1n[nH]c2c1N=C(c1c(F)cc(OC(F)F)cc1F)N1CCn3ncc-2c31 [Compound 398] |
| < 10 | Fc1ccc(C2CC2)c(F)c1C1=Nc2cn[nH]c2-c2cnn3c2N1CC3 [Compound 399, 3-(3-cyclopropyl-2,6-difluorophenyl)-2,7-dihydro-1H-2a,4,6,7,9,9a-hexaazadicyclopenta[cd,f]azulene] |
| < 10 | OCc1ccc(F)c(C2=Nc3cn[nH]c3-c3cc(C(F)(F)F)cc4[nH]cc2c34)c1F [Compound 407, (2,4-difluoro-3-(9-(trifluoromethyl)-1,7-dihydropyrazolo[3′,4′:6,7]azepino[3,4,5-cd]indol-3-yl)phenyl)methanol] |
